In PubChem BioAssay (NCI):
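Values below derive from 48-hour exposures of cells grown in 96-well plates, with endpoints linearly interpolated between the two concentrations bracketing the appropriate inhibition level. GI50 = concentration required for 50% inhibition of growth. At the TGI there is no net growth.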

Tests used:
Assay in all cases: NCI tumour cell line growth inhibition, 48 h
[1] = tested on: MOLT-4 leukemia
[2] = tested on: UO-31 renal
[3] = tested on: HOP-62 NSCLC
[4] = tested on: KM12 colon
[5] = tested on: CCRF-CEM leukemia
[6] = tested on: NCI/ADR-RES ovarian
[7] = tested on: SNB-19 CNS
[8] = tested on: EKVX NSCLC
[9] = tested on: RPMI-8226 leukemia
[10] = tested on: UACC-257 melanoma
[11] = tested on: LOX IMVI melanoma
[12] = tested on: K-562 leukemia
[13] = tested on: SF-268 CNS
[14] = tested on: HOP-92 NSCLC
[15] = tested on: BT-549 breast
[16] = tested on: SK-MEL-5 melanoma
[17] = tested on: HCC-2998 colon
[18] = tested on: HCT-116 colon
[19] = tested on: MDA-MB-468 breast
[20] = tested on: U251 CNS
[21] = tested on: HCT-15 colon
[22] = tested on: MCF7 breast
[23] = tested on: T-47D breast
[24] = tested on: SF-295 CNS
[25] = tested on: COLO 205 colon
[26] = tested on: NCI-H226 lung
[27] = tested on: SK-OV-3 ovarian
[28] = tested on: ACHN renal
[29] = tested on: MALME-3M melanoma
[30] = tested on: SNB-75 CNS
[31] = tested on: SK-MEL-2 melanoma
[32] = tested on: HS 578T breast
[33] = tested on: A549 NSCLC
[34] = tested on: UACC-62 melanoma
[35] = tested on: IGROV1 ovarian
[36] = tested on: TK-10 renal
[37] = tested on: OVCAR-4 ovarian
[38] = tested on: HT29 colon
[39] = tested on: CAKI-1 renal
[40] = tested on: OVCAR-5 ovarian
[41] = tested on: SW-620 colon
[42] = tested on: MDA-MB-231 breast
[43] = tested on: M14 melanoma
[44] = tested on: OVCAR-3 ovarian
[45] = tested on: OVCAR-8 ovarian
[46] = tested on: DU-145 prostate
[47] = tested on: SF-539 CNS
[48] = tested on: NCI-H460 lung
[49] = tested on: PC-3 prostate
[50] = tested on: HL-60(TB) leukemia
[51] = tested on: NCI-H522 lung
[52] = tested on: RXF 393 renal
[53] = tested on: SR leukemia
[54] = tested on: NCI-H23 lung
[55] = tested on: 786-0 renal
[56] = tested on: SN12C renal
[57] = tested on: A498 renal
[58] = tested on: SK-MEL-28 melanoma
[59] = tested on: MDA-MB-435

Molecule `CCOP(=O)(OCC)O[C@H]1CC[C@]2(C)[C@H]3CC[C@@H]4[C@@H]([C@](C)(O)CCC=C(C)C)CC[C@@]4(C)[C@]3(C)CC[C@H]2C1(C)C` has a GI50 [1] of 8.07 µM, a TGI [1] of 29.1 µM and a GI50 [2] of 10.1 µM. The TGI [2] was 21.6 µM, the GI50 [3] was 14.1 µM and the TGI [3] was 29.5 µM. For the same molecule, the GI50 [4] was 15.4 µM, the TGI [4] was 33.2 µM and the GI50 [5] was 11.5 µM. For the same molecule, the TGI [5] was 29.3 µM, the GI50 [6] was 14.7 µM and the TGI [6] was 28.5 µM. For the same molecule, the GI50 [7] was 13.4 µM, the TGI [7] was 26.1 µM and the GI50 [8] was 10.1 µM. It also gave a TGI [8] of 21.6 µM, a GI50 [9] of 3.02 µM and a TGI [9] of 17.5 µM. For the same molecule, the GI50 [10] was 12.4 µM, the TGI [10] was 27.3 µM and the GI50 [11] was 12.7 µM. For the same molecule, the TGI [11] was 25.2 µM, the GI50 [12] was 6.99 µM and the TGI [12] was 98.8 µM. The GI50 [13] was 12.7 µM, the TGI [13] was 30.9 µM and the GI50 [14] was 10.3 µM. The TGI [14] was 23.4 µM, the GI50 [15] was 14.9 µM and the TGI [15] was 29.1 µM. For the same molecule, the GI50 [16] was 10.4 µM, the TGI [16] was 22.2 µM and the GI50 [17] was 13.4 µM. It also gave a TGI [17] of 26 µM, a GI50 [18] of 5.91 µM and a TGI [18] of 21.7 µM. It also gave a GI50 [19] of 5.1 µM, a TGI [19] of 18.2 µM and a GI50 [20] of 11.8 µM. The TGI [20] was 28.4 µM, the GI50 [21] was 10.7 µM and the TGI [21] was 22.4 µM. For the same molecule, the GI50 [22] was 7.26 µM, the TGI [22] was 20.5 µM and the GI50 [23] was 7.62 µM. The TGI [23] was 25.2 µM, the GI50 [24] was 12.4 µM and the TGI [24] was 24.8 µM. The GI50 [25] was 12.4 µM, the TGI [25] was 29.5 µM and the GI50 [26] was 11.8 µM. For the same molecule, the TGI [26] was 25.3 µM, the GI50 [27] was 12.3 µM and the TGI [27] was 27 µM. For the same molecule, the GI50 [28] was 12.5 µM, the TGI [28] was 25 µM and the GI50 [29] was 11.7 µM. It also gave a TGI [29] of 24 µM, a GI50 [30] of 7.02 µM and a TGI [30] of 22.4 µM. For the same molecule, the GI50 [31] was 13.2 µM, the TGI [31] was 26.9 µM and the GI50 [32] was 11.5 µM. The TGI [32] was 31.8 µM, the GI50 [33] was 12.6 µM and the TGI [33] was 30.3 µM. It also gave a GI50 [34] of 10.7 µM, a TGI [34] of 22.6 µM and a GI50 [35] of 13.8 µM. For the same molecule, the TGI [35] was 27.5 µM, the GI50 [36] was 13.5 µM and the TGI [36] was 27.7 µM. The GI50 [37] was 13.4 µM, the TGI [37] was 32 µM and the GI50 [38] was 7.35 µM. For the same molecule, the TGI [38] was 23.2 µM, the GI50 [39] was 10.3 µM and the TGI [39] was 22.8 µM. For the same molecule, the GI50 [40] was 12.7 µM, the TGI [40] was 25.2 µM and the GI50 [41] was 13.2 µM. For the same molecule, the TGI [41] was 27.4 µM, the GI50 [42] was 11.5 µM and the TGI [42] was 23.7 µM. The GI50 [43] was 14.9 µM, the TGI [43] was 35 µM and the GI50 [44] was 13.5 µM. For the same molecule, the TGI [44] was 27.2 µM, the GI50 [45] was 13.2 µM and the TGI [45] was 30.8 µM. The GI50 [46] was 14.8 µM, the TGI [46] was 30.4 µM and the GI50 [47] was 13.2 µM. The TGI [47] was 25.8 µM, the GI50 [48] was 12.9 µM and the TGI [48] was 27.6 µM. For the same molecule, the GI50 [49] was 3.45 µM, the TGI [49] was 17 µM and the GI50 [50] was 8.49 µM. The TGI [50] was 33.2 µM, the GI50 [51] was 11.5 µM and the TGI [51] was 25.9 µM. It also gave a GI50 [52] of 6.45 µM, a TGI [52] of 19.5 µM and a GI50 [53] of 3.12 µM. For the same molecule, the TGI [53] was 98.8 µM, the GI50 [54] was 10.1 µM and the TGI [54] was 21.7 µM. For the same molecule, the GI50 [55] was 11.9 µM, the TGI [55] was 28.3 µM and the GI50 [56] was 11.8 µM. For the same molecule, the TGI [56] was 24 µM, the GI50 [57] was 12.4 µM and the TGI [57] was 25.1 µM. The GI50 [58] was 12.9 µM, the TGI [58] was 25.8 µM and the GI50 [59] was 12.8 µM. The TGI [59] was 27.1 µM.
